Laboratory results from paper PMC4875962 (Clinical Pharmacokinetics, 2015).

Tests used:
Metabolic CYP enzymes = details: cited from earlier work
Transporters = details: cited from earlier work
[1] = after multiple doses; cited from earlier work
platelet aggregation = details: day 2 ratio (90 % CI 68.20–71.62); data on file

Row | Structure (SMILES) | Metabolic CYP enzymes inhibited (Metabolic CYP enzymes) | Transporters inhibited (Transporters) | other results
1 | CCCCc1oc2ccc(NS(C)(=O)=O)cc2c1C(=O)c1ccc(OCCCN(CCCC)CCCC)cc1 [Dronedarone] | Moderate 3A4 | P-gp | –
2 | COc1ccc2nc([S@@+]([O-])Cc3ncc(C)c(OC)c3C)[nH]c2c1 [Esomeprazole] | 2C9, 2C19 (competitive) | – | gastric pH [1]: approximately 5
3 | CC(=O)N1CCN(c2ccc(OCC3COC(Cn4ccnc4)(c4ccc(Cl)cc4Cl)O3)cc2)CC1 (stereo not shown) [Ketoconazole] | Strong 3A4; weak 2C8, 2C19 | P-gp | –
4 | COc1ccc2cc([C@H](C)C(=O)O)ccc2c1 [Naproxen] | – | – | baseline-corrected ratio for platelet aggregation (platelet aggregation): 69.89%
5 | C=C[C@H]1C[N@@]2CC[C@H]1C[C@@H]2[C@@H](O)c1ccnc2ccc(OC)cc12 [Quinidine] | Strong 2D6 | P-gp; OCT2 | –
6 | CO[C@H]1/C=C/O[C@@]2(C)Oc3c(C)c(O)c4c(O)c(c(/C=N/N5CCN(C)CC5)c(O)c4c3C2=O)NC(=O)/C(C)=C\C=C\[C@H](C)[C@H](O)[C@@H](C)[C@@H](O)[C@@H](C)[C@H](OC(C)=O)[C@@H]1C [Rifampin] | – | – | Transporters induced (Transporters): P-gp
